Consider one compound from US20260248780A1, “PHARMACEUTICAL COMPOSITIONS” (Birdie Biopharmaceuticals, Inc., priority 2017, published 2026).

SMILES strings stand for the structures.

Common to all, as to format: physicochemical
Data set [1] in a line: HPLC purity of clear samples after kinetic solubility test. To be noted: clear sample after kinetic solubility test, FeSSIF. The protocol:
After being centrifuged and separated using 0.45 μm Nylon filter, filtrates were collected for HPLC and pH test, and wet cakes for XRPD characterization. If clear solutions were obtained after 24 hours, accurate concentration and purity were measured for the solutions.

Data set [2] can be described thus: Physical and chemical (solid-state) stability under 25° C./60% RH and 40° C./75% RH for one week. The conditions noted are these: for Form change: XRPD. On the procedure:
Physicochemical stability of Type A (807919-05-A) was evaluated under 25° C./60% RH and 40° C./75% RH for one week, and 80° C. (closed) for 24 hours.

A short description of data set [3]: pKa determination on Sirius T3. The protocol: The mixtures of freebase and acid were stirred at RT for 2.5 days. Clear solutions obtained were slurried at 5° C. overnight to induce precipitation. If the samples were still clear, they would be subjected to evaporation to dryness at RT, in order to maximize the chance of identifying as many crystalline hits as possible. Resulted solids were isolated and analyzed by XRPD.
pKa was determined on Sirius T3 TM according to the manufacturer's instructions and the parameters for pKa test was listed in Table 5-13.

As a reminder, the pKa is the negative logarithm of the acid dissociation constant. Read a low pKa as a group that gives up its proton readily. In the case of `CCOCc1nc2c(N)nc3ccccc3c2n1CC(C)(C)O` [Freebase Type A, 1-[4-amino-2-(ethoxymethyl)imidazo-[4,5-c]-quinolin-1-yl]-2-methylpropan-2-ol], in data set [1], the “HPLC Purity % of Initial” value was found to be 99.9% and the “HPLC Purity Area %” value amounted to 99.25 Area %. For the same compound, in data set [2] (25° C./60% RH), the “HPLC Purity % of Initial” value is 99.8%, the “HPLC Purity Area %” value turned out to be 99.15 Area % and the Form change entry is reported as “No”. For the same compound, in data set [2] (40° C./75% RH), the “HPLC Purity % of Initial” value worked out at 100.0%, the “HPLC Purity Area %” value is reported as 99.28 Area % and the Form change result was “No”. In data set [3], this compound registered a pKa of 7.2.
